{
  "source": "patent US20250034520A1",
  "about": "“INCREASING DEVELOPMENTAL POTENTIAL OF HUMAN PREIMPLANTATION EMBRYOS BY REDUCING GENETIC INSTABILITY, ANEUPLOIDIES AND CHROMOSOMAL MOSAICISM” (THE TRUSTEES OF COLUMBIA UNIVERSITY IN THE CITY OF NEW YORK, priority 2022, published 2025)",
  "key": {"human embryos [1]": {"test_system": "human embryos", "test": "nucleation and development of human embryos", "format": "cell-based", "details": "2PN zygotes incubated days 1 to 3, versus untreated cleavage-stage embryos", "excerpt": "Cryopreserved human cleavage-stage and blastocyst embryos and unfertilized oocytes were anonymously donated from individuals and couples who provided consent for use in research. Embryos were of good quality and had been cryopreserved for potential clinical use but were then no longer needed and donated for research. The cause of treatment is not disclosed. Range of maternal age of donated embryos is between 27-43. Embryos of both sexes were used, as provided by the unbiased fertilization of oocytes with sperm carrying either a Y or X chromosome. Cleavage stage embryos were thawed using the one-step thaw protocol using Global total with HEPES. Blastocyst stage embryos were thawed using the Quinn's Advantage thaw kit, then exposed to experimental conditions as outlined below. Vitrified embryos were thawed with the ECMPC warming solution set. Embryo culture was performed in Global Total. All experiments were conducted during incubation at 37° C. with 5% CO2 and 20% 02.\n(§1) Embryos, mouse and human, were cultured in Global Total (Life-Global) for the duration of the experiments and with added compounds as outlined below. Incubation in RNA polymerase inhibitors triptolide (1 mM) or alpha amanitin (20 mg/ml) was performed from the 2PN stage (day1) to day3 of human development. Incubation in aphidicolin was performed at 2 mM. […] Mirin was used at a concentration of 50 mM. Olaparib was used to inhibit PARP at a concentration of 10 mM. All experiments were conducted during incubation at 37° C. with 5% CO2 and 19-20% O2. Chemical stock solutions were prepared in DMSO at concentrations at least 1000× higher than the final concentration.\n(§2) Following the experimental exposures, mouse and human embryos were fixed in 2% paraformaldehyde (PFA) and 0.25% Triton X-100 in PBS for 10 minutes at room temperature, serially washed in phosphate-buffered solution (PBS) at room temperature, then stored in PBS at 4° C. until staining and imaging. Embryos were placed in 10-20 ml droplets of primary antibody solution within plastic tissue culture dishes covered with mineral oil for 1 hour at room temperature, serially washed (×2) in PBS containing 0.01% Triton X-100 to prevent embryos sticking to oil, then transferred to 10-20 ml secondary antibody solution and Hoechst (dilution 1:500) for 30 minutes. Embryos were then serially washed (×2) and placed in 5 ml droplets of PBS with 0.5% serum albumin in uncoated glass bottom dishes (Mattek) covered with embryo culture oil for imaging. […]\nEmbryos were imaged with confocal microscopy using a Zeiss LSM (LSM 710) at a magnification of 63× and the Zeiss Zen software. […] Cell numbers and staining foci numbers were counted manually. […]"}, "mouse embryos": {"test_system": "mouse embryos", "test": "mouse preimplantation development and embryo quality", "format": "cell-based", "procedure": "as §1\n(§3) Mouse oocytes were activated at 1-6 hours post retrieval using 2 mM ionomycin (Sigma Aldrich) in Global Total medium for 5 minutes at 37° C. followed by culture in 10 mM puromycin and 5 mg/ml cytochalasin B for 3 hours, then cytochalasinB only for 2 hours and 10 minutes to prevent second polar body extrusion.\n(§4) Following the experimental exposures, mouse and human embryos were fixed in 2% paraformaldehyde (PFA) and 0.25% Triton X-100 in PBS for 10 minutes at room temperature, serially washed in phosphate-buffered solution (PBS) at room temperature, then stored in PBS at 4° C. until staining and imaging. Embryos were placed in 10-20 ml droplets of primary antibody solution within plastic tissue culture dishes covered with mineral oil for 1 hour at room temperature, serially washed (×2) in PBS containing 0.01% Triton X-100 to prevent embryos sticking to oil, then transferred to 10-20 ml secondary antibody solution and Hoechst (dilution 1:500) for 30 minutes. Embryos were then serially washed (×2) and placed in 5 ml droplets of PBS with 0.5% serum albumin in uncoated glass bottom dishes (Mattek) covered with embryo culture oil for imaging. The following primary antibodies were used across experiments as described above: Oct-4, γH2AX, RPA32, RPA32 S4/S8, RPA32 S33, 53BP1, RAD51, Centromere, and phospho-CHK1. Phospho-specific antibodies were quality controlled through ATR dependence of foci formation in mouse zygotes, and for γH2AX also in human zygotes. […] The appropriate secondary antibodies conjugated with Alexa Fluor 488, Alexa Fluor 555, CF 568, or Alexa Fluor 647 were diluted at 1:500-1:1000. Ethynyl deoxyuridine (EdU) labeling of zygotes and embryos was performed using the labeling kit (Thermo Fisher Scientific) as described by the manufacturer. 10 mM EdU was added to culture medium for 1 h at the indicated time points, and cells were harvested and fixed thereafter. 5-ethynyl uridine (EU) labeling was performed by incubating day3 cleavage stage embryos for 4 hours in Global total containing 0.2 mM EU.\n(§5) Embryos were imaged with confocal microscopy using a Zeiss LSM (LSM 710) at a magnification of 63× and the Zeiss Zen software. Images were obtained using 488-, 543- and 633-nm lasers and bright-field microscopy. The number of confocal sections was adjusted to capture the entire nucleus or the entire embryo according to the experimental design as described above. Cell numbers and staining foci numbers were counted manually. Nuclei were identified by the presence of Hoechst33342. Foci were identified if at least 3× greater intensity than nuclear average, spherical in appearance, and overlapping with Hoechst33342 staining. Inner cell masses were identified by the presence of Oct4 within a blastocyst embryo. Active DNA replication was identified by the presence of EdU. DNA damage was identified by the detection of γH2AX and RPA foci within the nucleus. Mechanisms of DNA repair were identified through the detection of RPA S4/S8, RPA S33, Rad51 and 53BP1 foci within the nucleus."}, "human embryos [2]": {"test_system": "human embryos", "test": "ethynyl uridine label incorporation in human embryos", "format": "cell-based", "details": "incubation from days 1 to 3", "procedure": "as §1\nas §2, with “minutes.” for “minutes. Embryos were then serially washed (×2) and placed in 5 ml droplets of PBS with 0.5% serum albumin in uncoated glass bottom dishes (Mattek) covered with embryo culture oil for imaging.”"}, "human zygotes": {"test_system": "human zygotes", "test": "DNA damage foci immunostaining in human zygotes/parthenotes", "format": "cell-based", "procedure": "as §1\nArtificial activation of human MII oocytes was performed using two pulses of 2.7 kV/cm at 50 ms using ECFG21 (Nepagene) in fusion buffer consisting of 0.25 M d-sorbitol buffer containing 0.1 mM calcium acetate, 0.5 mM magnesium acetate, 0.5 mM HEPES, and 1 mg ml^−1 fatty-acid-free BSA as previously described (Tachibana et al., 2013). Thereafter, oocytes were incubated for 3.5-4 h in 10 mg/ml puromycin, followed by a wash step and following culture in Global total.\nas §4, with “phospho-CHK1.” for “phospho-CHK1. Phospho-specific antibodies were quality controlled through ATR dependence of foci formation in mouse zygotes, and for γH2AX also in human zygotes.”\nas §5"}, "ATR": {"biological_target": "ATR (Homo sapiens, UniProt Q13535)", "sequence (Q13535 whole entry)": "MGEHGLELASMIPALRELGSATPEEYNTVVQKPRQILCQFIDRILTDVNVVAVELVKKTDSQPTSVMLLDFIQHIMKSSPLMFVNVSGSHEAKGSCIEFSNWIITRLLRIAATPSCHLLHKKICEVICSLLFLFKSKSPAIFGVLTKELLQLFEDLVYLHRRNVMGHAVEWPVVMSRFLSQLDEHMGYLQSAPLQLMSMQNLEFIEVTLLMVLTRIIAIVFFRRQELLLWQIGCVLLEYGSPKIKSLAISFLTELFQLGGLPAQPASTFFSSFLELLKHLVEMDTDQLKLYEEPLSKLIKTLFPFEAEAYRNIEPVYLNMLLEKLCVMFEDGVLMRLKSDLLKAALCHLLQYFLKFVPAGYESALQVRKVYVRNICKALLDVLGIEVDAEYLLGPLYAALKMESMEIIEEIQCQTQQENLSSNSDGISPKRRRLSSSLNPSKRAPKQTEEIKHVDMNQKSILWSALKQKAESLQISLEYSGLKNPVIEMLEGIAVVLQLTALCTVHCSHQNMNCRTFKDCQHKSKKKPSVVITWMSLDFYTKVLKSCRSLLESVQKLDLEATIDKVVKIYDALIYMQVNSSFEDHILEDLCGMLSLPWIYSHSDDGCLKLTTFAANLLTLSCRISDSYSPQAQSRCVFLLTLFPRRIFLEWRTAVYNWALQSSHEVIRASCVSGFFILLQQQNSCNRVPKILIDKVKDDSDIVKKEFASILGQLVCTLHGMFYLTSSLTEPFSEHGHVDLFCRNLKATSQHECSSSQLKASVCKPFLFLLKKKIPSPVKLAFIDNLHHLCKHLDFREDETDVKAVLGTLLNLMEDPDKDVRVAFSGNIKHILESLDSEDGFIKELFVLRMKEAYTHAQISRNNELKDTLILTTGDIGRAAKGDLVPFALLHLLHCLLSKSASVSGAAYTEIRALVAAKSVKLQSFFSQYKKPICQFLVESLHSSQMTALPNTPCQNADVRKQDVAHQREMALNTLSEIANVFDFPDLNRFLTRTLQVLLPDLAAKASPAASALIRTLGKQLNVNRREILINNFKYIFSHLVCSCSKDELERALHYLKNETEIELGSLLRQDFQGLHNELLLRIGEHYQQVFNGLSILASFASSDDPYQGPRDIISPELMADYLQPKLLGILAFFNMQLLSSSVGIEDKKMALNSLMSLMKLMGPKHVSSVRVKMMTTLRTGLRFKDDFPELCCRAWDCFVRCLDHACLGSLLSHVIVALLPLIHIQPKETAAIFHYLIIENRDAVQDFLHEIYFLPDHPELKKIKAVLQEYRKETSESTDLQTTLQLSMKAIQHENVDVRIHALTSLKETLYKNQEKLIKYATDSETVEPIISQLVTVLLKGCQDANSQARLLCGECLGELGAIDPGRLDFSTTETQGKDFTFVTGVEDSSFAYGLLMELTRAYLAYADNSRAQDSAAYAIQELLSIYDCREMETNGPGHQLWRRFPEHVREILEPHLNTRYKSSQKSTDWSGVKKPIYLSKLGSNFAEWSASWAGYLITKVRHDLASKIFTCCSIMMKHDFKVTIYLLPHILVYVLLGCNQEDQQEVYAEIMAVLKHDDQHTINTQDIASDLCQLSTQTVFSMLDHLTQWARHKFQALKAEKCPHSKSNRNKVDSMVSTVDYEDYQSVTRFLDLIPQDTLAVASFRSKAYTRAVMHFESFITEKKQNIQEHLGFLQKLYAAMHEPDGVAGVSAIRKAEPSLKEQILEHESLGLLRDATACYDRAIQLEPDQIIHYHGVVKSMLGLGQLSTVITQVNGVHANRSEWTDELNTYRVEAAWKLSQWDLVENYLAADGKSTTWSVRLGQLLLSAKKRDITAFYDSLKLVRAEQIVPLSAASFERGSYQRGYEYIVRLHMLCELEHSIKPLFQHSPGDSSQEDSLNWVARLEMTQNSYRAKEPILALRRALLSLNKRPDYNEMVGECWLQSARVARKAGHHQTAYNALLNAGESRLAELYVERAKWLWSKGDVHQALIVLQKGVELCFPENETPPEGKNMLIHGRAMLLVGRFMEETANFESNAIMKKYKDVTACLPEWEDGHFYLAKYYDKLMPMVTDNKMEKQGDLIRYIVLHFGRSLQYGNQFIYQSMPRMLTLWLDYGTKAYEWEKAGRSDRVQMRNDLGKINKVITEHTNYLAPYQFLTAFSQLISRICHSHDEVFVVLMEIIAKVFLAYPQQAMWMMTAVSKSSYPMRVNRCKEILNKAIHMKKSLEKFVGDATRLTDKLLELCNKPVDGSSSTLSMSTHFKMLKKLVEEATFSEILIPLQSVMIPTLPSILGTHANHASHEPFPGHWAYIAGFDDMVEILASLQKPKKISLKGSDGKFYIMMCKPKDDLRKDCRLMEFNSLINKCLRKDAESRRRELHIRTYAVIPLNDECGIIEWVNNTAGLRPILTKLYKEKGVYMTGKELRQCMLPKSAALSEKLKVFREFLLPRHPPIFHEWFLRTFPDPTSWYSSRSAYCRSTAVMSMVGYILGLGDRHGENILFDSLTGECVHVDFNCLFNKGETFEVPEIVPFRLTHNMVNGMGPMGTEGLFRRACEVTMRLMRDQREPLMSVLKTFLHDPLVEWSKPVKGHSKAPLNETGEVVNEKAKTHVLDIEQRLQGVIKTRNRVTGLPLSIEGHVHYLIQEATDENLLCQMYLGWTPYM", "sequence (Q8WXE1 whole entry partner)": "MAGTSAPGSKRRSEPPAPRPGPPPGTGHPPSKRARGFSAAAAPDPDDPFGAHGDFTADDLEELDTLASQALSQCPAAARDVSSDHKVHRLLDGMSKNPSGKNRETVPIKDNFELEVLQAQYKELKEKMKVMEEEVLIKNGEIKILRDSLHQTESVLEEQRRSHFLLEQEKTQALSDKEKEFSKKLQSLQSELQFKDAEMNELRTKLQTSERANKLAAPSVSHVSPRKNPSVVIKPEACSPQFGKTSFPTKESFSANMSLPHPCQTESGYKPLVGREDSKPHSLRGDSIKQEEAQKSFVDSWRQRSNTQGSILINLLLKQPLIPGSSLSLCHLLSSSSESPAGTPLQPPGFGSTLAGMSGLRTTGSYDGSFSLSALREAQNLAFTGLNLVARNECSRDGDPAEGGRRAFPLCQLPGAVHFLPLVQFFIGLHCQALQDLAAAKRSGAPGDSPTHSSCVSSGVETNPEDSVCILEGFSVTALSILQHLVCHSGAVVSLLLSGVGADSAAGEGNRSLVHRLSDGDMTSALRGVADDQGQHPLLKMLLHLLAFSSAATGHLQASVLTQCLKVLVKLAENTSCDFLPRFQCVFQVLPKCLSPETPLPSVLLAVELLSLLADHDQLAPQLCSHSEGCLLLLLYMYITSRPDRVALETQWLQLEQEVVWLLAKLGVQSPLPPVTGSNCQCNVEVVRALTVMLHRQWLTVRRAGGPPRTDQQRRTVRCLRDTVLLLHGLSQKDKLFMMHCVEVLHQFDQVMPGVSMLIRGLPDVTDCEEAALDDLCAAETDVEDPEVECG", "details": "cited from earlier work"}, "mouse zygotes": {"test_system": "mouse zygotes", "test": "DNA damage foci immunostaining in mouse zygotes/embryos", "format": "cell-based", "details": "mouse zygotes, mirin combined with aphidicolin", "procedure": "as §1, §3, §4, §5"}, "mouse 1-cell embryos": {"test_system": "mouse 1-cell embryos", "test": "timing of mitotic entry in mouse 1-cell embryos", "format": "cell-based", "details": "G2 phase mouse embryos, compared with untreated controls", "procedure": "as §1, §3"}, "mouse 2-cell embryos": {"test_system": "mouse 2-cell embryos", "test": "single-cell sequencing chromosome content analysis, mouse 2-cell embryos", "format": "cell-based", "details": "mouse embryos, Wee1 kinase inhibitor added alongside aphidicolin", "procedure": "as §1\nSingle cells from blastomeres were collected on the heated stage (Tokai Hit) of an Olympus IX71 inverted microscope equipped with Narishige micromanipulators and a zona pellucida laser (Hamilton-Thorne). Single nuclei were isolated from blastomeres by lysis and dissection of different nuclei using two […] diameter Piezo micropipettes and Holding pipette (Origio). Single embryo cells or nuclei were placed manually in single wells of a 96-well plate containing 9 ml of lysis buffer, prepared as a master mix of 798 ml H2O, 6 ml of 10 mg/mL Proteinase K solution (Sigma-Aldrich), and 96 ml 10× Single Cell Lysis and Fragmentation buffer (Sigma-Aldrich). Single cells/single nuclei were lysed by heating 96-well plates containing single cells/single nuclei at 50° C. for 1 hour, followed by incubation at 99° C. for four minutes using a PCR thermocycler. Single-cell/single-nuclei whole genome amplification (WGA) using degenerate oligo-nucleotide priming PCR (DOP-PCR) was performed using the SEQPLEX Enhanced DNA Amplification Kit (SEQXE, Sigma) according to the manufacturer's instructions. In addition, a modified version of the DOP-PCR protocol that allows inline indexing of WGA DNA was also applied. WGA DNA was subsequently processed for Illumina library sequencing preparation using standard TruSeq indexing methods via the NEBNext Ultra II DNA Library Prep Kit for Illumina (New England Biolabs). NEBNext Multiplex Oligos for Illumina (96 index primers) were used for four amplification cycles. Library DNA was quantified using Qubit dsDNA HS Assay Kit (Invitrogen, Carlsbad, CA, USA) and library size distribution was confirmed using a 2100 Bioanalyzer DNA 1000 Kit (Agilent, Santa Clara, CA, USA). A unimodal curve centered around 300-500 bp was scored as a successful library preparation. Subsequently, 30 mL of each pooled library was sent for sequencing at a concentration of 20 ng/ml. Mutiplex sequencing was performed using Illumina HiSeq 2500 single end indexed run (SR100) while targeting a coverage of approximately 1 million reads per cell/nuclei, sufficient for quantitative genome-wide copy number analysis.\nAnalysis of DNA sequencing data was performed as previously described (Baslan et al., 2015) with minor modifications as outlined below. Briefly, multiplex sequencing data were demultiplexed according to unique barcodes with reads assigned to their respective single-cell or single-nuclei. Unique reads were aligned to the reference human and mouse genome builds, hg19 and mm9, respectively. Each genome was partitioned into 5000 bins using a previously described algorithm (Varbin) that corrects for genome sequence mappability (Baslan et al., 2012; Navin et al., 2011). Uniquely mapped reads were sorted, indexed and subsequently counted within the partitioned genomic bins. For single-cell copy number inference, read count data were normalized genome-wide followed by CBS segmentation (Olshen et al., 2004) and transformed into integer copy number states using a least-squares fit approach (Baslan et al., 2015)."}},
  "data": [
    {"compound": "a-amanitin", "values": [
      {"measurement": "micronucleation", "setting": "human embryos [1]", "value": "comparable"}
    ]},
    {"compound": "CC(C)[C@]12O[C@H]1[C@@H]1O[C@]13[C@]1(O[C@H]1C[C@H]1C4=C(CC[C@@]13C)C(=O)OC4)[C@@H]2O", "note": "[triptolide]", "values": [
      {"measurement": "mouse embryos developed beyond the two-cell stage", "setting": "mouse embryos; in the presence of the inhibitor", "value": "0/15"},
      {"measurement": "micronucleation", "setting": "human embryos [1]", "value": "comparable"},
      {"measurement": "embryos showing ethynyl uridine label incorporation", "setting": "human embryos [2]", "value": "0/4"}
    ]},
    {"compound": "CS(=O)(=O)c1ccc(-c2cnc(N)c(C(=O)Nc3ccccc3)n2)cc1", "note": "[ATR45]", "values": [
      {"measurement": "number of γH2AX foci", "setting": "human zygotes; parthenogenetically activated oocytes, inhibitor from 14-18 h into the first cell cycle, relative to controls", "value": "reduced significantly"},
      {"measurement": "selectivity over related kinases ATM or DNA-PK", "setting": "ATR", "value": "> 600", "unit": "×"}
    ]},
    {"compound": "N=C1NC(=O)/C(=C/c2ccc(O)cc2)S1", "note": "[mirin]", "values": [
      {"measurement": "number of RAD51 foci, average", "setting": "human zygotes; human zygotes, combined exposure to aphidicolin and mirin", "value": 50, "unit": "sites"},
      {"measurement": "number of Rad51 foci", "setting": "mouse zygotes", "value": "more than 50"},
      {"measurement": "number of foci marked by γH2AX", "setting": "mouse zygotes", "value": "more than 100"}
    ]},
    {"compound": "C=CCn1c(=O)c2cnc(Nc3ccc(N4CCN(C)CC4)cc3)nc2n1-c1cccc(C(C)(C)O)n1", "note": "[Wee1 kinase inhibitor]", "values": [
      {"measurement": "advance of mitosis", "setting": "mouse 1-cell embryos", "value": 1.5, "unit": "h"},
      {"measurement": "genome after mitosis", "setting": "mouse 2-cell embryos", "value": "highly fragmented genome"},
      {"measurement": "developmental potential", "setting": "mouse embryos; treatment in G2 phase, compared with untreated controls", "value": "impaired"}
    ]}
  ]
}
